This is an account of results in ChEMBL document CHEMBL2413048, “3,4-Dihydroxy- and 3,4-methylenedioxy- phenanthrene-type alkaloids with high selectivity for D2 dopamine receptor” (Bioorg Med Chem Lett, 2013).

The species entered for one assay is Rattus norvegicus. Briefly: Selectivity ratio of Ki for D1 receptor of Wistar rat striatal membranes to Ki for D2 receptor of Wistar rat striatal membranes. To be noted: Membrane. It is filed as cell membranes.
The next assay deals with D(1A) dopamine receptor (Rattus norvegicus, UniProt P18901). Briefly: Displacement of [3H]-SCH23390 from D1 receptor of Wistar rat striatal membranes after 1 hr by liquid scintillation counting. The assay is classed as cell membranes, Membrane. In general terms: Loss of bound radioactivity is the signal in a displacement assay; it reports binding, not function.
Sequence of D(1A) dopamine receptor (P18901 whole entry): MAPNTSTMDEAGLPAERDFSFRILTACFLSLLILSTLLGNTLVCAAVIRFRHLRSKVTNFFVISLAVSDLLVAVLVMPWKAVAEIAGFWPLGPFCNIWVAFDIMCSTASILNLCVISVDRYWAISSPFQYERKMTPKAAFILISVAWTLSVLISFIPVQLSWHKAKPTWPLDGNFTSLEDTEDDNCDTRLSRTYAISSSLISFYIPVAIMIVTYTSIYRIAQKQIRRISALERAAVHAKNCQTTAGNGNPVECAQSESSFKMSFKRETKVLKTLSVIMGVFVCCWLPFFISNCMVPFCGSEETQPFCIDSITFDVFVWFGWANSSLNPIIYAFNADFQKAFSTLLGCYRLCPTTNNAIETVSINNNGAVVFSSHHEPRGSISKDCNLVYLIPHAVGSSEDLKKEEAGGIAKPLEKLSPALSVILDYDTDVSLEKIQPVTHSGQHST
The target of the next assay is D(2) dopamine receptor (Rattus norvegicus, UniProt P61169). Kind of assay: (§1) Displacement of [3H]-raclopride from D2 receptor of Wistar rat striatal membranes after 1 hr by liquid scintillation counting. The assay is classed as cell membranes, Membrane.
Sequence of D(2) dopamine receptor (P61169 whole entry): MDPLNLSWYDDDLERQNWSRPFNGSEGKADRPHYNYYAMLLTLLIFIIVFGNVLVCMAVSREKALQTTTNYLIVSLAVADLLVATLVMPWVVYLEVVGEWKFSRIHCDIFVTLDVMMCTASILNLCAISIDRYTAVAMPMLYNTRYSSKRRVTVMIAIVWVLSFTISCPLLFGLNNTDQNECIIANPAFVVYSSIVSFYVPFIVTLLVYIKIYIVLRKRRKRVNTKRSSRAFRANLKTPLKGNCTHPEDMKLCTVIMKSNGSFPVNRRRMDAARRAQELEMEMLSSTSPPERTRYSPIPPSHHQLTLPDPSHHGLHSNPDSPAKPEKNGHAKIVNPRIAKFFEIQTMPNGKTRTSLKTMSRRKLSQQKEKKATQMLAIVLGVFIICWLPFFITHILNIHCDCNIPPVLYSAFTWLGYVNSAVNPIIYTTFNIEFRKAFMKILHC
In assay [1] the target is D(2) dopamine receptor (Rattus norvegicus) (UniProt P61169). The assay is described as §1. The assay is classed as cell membranes. To be noted: Membrane.
Sequence of D(2) dopamine receptor (Rattus norvegicus) (P61169 whole entry): as above

The source made the active and inactive calls. The calls are words filed in the database; no cut-off is given here.

For `CN1CCc2cc3c(c4c2C1Cc1ccccc1-4)OCO3` (racemic) [ROEMERINE], in the assay filed under Rattus norvegicus, the Ratio Ki came to 4.4. Moreover, the Ki is 377 nM at D(1A) dopamine receptor (read-out: Ki), 324 nM on D(1A) dopamine receptor (read-out: pKi (converted)) and 84 nM at D(2) dopamine receptor (read-out: Ki).

In the case of `CN(C)CCc1cc(O)c(O)c2c1ccc1ccccc12`, the Ratio Ki in the assay listed under Rattus norvegicus turned out to be 157. The Ki at D(1A) dopamine receptor (read-out: Ki) was 7700 nM; on D(1A) dopamine receptor (read-out: pKi (converted)) it was 6190 nM; at D(2) dopamine receptor (read-out: Ki), 49 nM; on D(2) dopamine receptor (read-out: pKi (converted)), 38.5 nM.

With `CN(C)CCc1cc2c(c3c1ccc1ccccc13)OCO2`, the Ratio Ki in the assay listed under Rattus norvegicus was 96. Also, the Ki was 6350 nM on D(1A) dopamine receptor (read-out: Ki), 4140 nM at D(1A) dopamine receptor (read-out: pKi (converted)), 66 nM on D(2) dopamine receptor (read-out: Ki) and 64.7 nM at D(2) dopamine receptor (read-out: pKi (converted)).

In the case of `COc1cc2c3c(c1OC)-c1ccccc1CC3N(C)CC2` (racemic) [(+/-)-NUCIFERINE], the Ki was 630 nM at D(1A) dopamine receptor (read-out: Ki), 587 nM at D(1A) dopamine receptor (read-out: pKi (converted)), 209 nM at D(2) dopamine receptor (read-out: Ki) and 173 nM on D(2) dopamine receptor (read-out: pKi (converted)).

As for `COc1cc2c3c(c1OC)-c1ccccc1CC3[N+](C)(C)CC2` (configuration not stated), the result in assay [1] was inactive.

Turning to `C[N+](C)(C)CCc1cc2c(c3c1ccc1ccccc13)OCO2`, the outcome in assay [1] was inactive.

`CN1CCc2cc(O)c(O)c3c2C1Cc1ccccc1-3` (configuration not stated): the Ratio Ki in the assay listed under Rattus norvegicus was determined as 8.9. For the same molecule, the Ki at D(1A) dopamine receptor (read-out: Ki) is 401 nM; at D(1A) dopamine receptor (read-out: pKi (converted)) it was 397 nM; at D(2) dopamine receptor (read-out: Ki) it was 45 nM; on D(2) dopamine receptor (read-out: pKi (converted)), 38.6 nM.

`C[N+]1(C)CCc2cc3c(c4c2C1Cc1ccccc1-4)OCO3` (racemic): the result in assay [1] was inactive.

`COc1cc(CCN(C)C)c2ccc3ccccc3c2c1OC`: in the assay listed under Rattus norvegicus, the Ratio Ki was found to be 9.1. Also, the Ki at D(1A) dopamine receptor (read-out: Ki) is 2940 nM; on D(1A) dopamine receptor (read-out: pKi (converted)), 2920 nM; at D(2) dopamine receptor (read-out: Ki), 323 nM; at D(2) dopamine receptor (read-out: pKi (converted)) it was 321 nM.

Turning to `COc1cc(CC[N+](C)(C)C)c2ccc3ccccc3c2c1OC`, the outcome in assay [1] was inactive.
